# Test results: US20240254129A1, “HETEROCYCLIC COMPOUNDS AND USES THEREOF” (Kumquat Biosciences Inc., priority 2021, published 2024)
# How the values were obtained:
# K-Ras G12D mutant = molecular target: T1, K-Ras G12D mutant (Homo sapiens, UniProt P01116, G12D); test: Nucleotide exchange assay (SOS1, BODIPY FL GDP), mutant K-Ras; format: biochemical; conditions: compound marked *: general methodology of example 7 (nucleotide exchange); read-out: IC50 against mutant Kras
# T1 construct: GST (N); made in house; host or cells: E. coli BL21 (DE3)
# Description: (§1) This assay can be also used to assess a selective inhibition of a mutant Ras protein relative to a wildtype, or relative to a different mutant Ras protein. For example, 250 nM or 500 nM GDP-loaded K-Ras proteins (e.g., wildtype or a mutant thereof including those mentioned in Example 6), each was incubated with different concentrations of compounds (for example ˜60 μM, ˜20 μM, ˜6.7 μM, ˜2.2 μM, ˜0.7 µM, ˜0.2 μM subject compound). A control reaction without subject compound was also included. SOS1 (catalytic domain) protein was added to the K-Ras protein solution. The nucleotide exchange reaction was initiated by adding fluorescent labelled GDP (Guanosine 5′-Diphosphate, BODIPY™ FL 2′-(or-3′)—O—(N-(2-Aminoethyl) Urethane) to a final concentration of 0.36 μM. Fluorescence was measured every 30 s for 70 minutes at 490 nm/515 nm (excitation/emission) in a M1000Pro plate reader (Tecan). Data is exported and analyzed to calculate an IC50 using GraphPad Prism (GraphPad Software). Sample(s) was tested with or without a subject compound disclosed herein including compound(s) exemplified in Table 1 to assess compound's ability to inhibit K-Ras signaling or its IC50 against a given Ras protein (e.g., a given mutant K-Ras) of interest.
# wildtype K-Ras = molecular target: T2, wildtype K-Ras (Homo sapiens, UniProt P01116); test: Nucleotide exchange assay (SOS1, BODIPY FL GDP), wildtype K-Ras; format: biochemical; conditions: compound marked *: general methodology of example 7 (nucleotide exchange); read-out: IC50 against wildtype Kras
# T2 construct: GST (N); made in house; host or cells: E. coli BL21 (DE3)
# Description: as §1
# [1] = molecular target: GST-tagged K-Ras mutant / His-tagged hSOS1 (Homo sapiens, UniProt P01116); test: HTRF assay, K-Ras mutant / SOS1 interaction; format: binding; conditions: compound nos. 401-703; read-out: IC50 against mutant Kras
# Method in brief: (§2)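 Compounds tested in duplicate from 10 μM down to 0.01 μM, incubated about 10 min or longer with GST-K-Ras/anti-GST-Eu and His-hSOS1/anti-6His-XL665 in ~5 mM HEPES pH 7.4 buffer with ~150 mM NaCl, DTT, BSA and Igepal. IC50 derived from 665/620 nm emission ratio.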
# wildtype Kras / hSOS1 = molecular target: T3, wildtype Kras / hSOS1 (Homo sapiens, UniProt P01116); test: HTRF assay, wildtype Kras / SOS1 interaction; format: binding; conditions: compound nos. 401-703; read-out: IC50 against wildtype Kras
# T3 construct: made in house; host or cells: E. coli BL21 (DE3)
# Method in brief: as §2
# Sequence of GST-tagged K-Ras mutant / His-tagged hSOS1 (P01116 whole entry G12D, form open): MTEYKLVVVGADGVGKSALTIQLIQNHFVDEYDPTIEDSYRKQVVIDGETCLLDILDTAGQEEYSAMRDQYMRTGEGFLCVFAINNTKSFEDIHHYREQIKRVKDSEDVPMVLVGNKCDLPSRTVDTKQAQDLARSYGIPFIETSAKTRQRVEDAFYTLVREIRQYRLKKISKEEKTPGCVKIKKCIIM
# T3 sequence (P01116 1-188 isoform P01116-2): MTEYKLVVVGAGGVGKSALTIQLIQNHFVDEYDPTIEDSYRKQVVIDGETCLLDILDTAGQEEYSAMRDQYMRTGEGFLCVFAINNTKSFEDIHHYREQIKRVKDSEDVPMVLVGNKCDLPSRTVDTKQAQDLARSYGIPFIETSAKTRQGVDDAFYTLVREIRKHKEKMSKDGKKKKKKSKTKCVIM
# T1 sequence (P01116 1-188 isoform P01116-2 G12D): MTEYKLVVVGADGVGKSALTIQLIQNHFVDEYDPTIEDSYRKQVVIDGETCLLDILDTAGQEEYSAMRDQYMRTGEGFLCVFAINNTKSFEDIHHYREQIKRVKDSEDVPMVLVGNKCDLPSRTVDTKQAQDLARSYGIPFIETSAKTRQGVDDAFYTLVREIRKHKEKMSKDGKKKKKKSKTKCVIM
# T2 sequence (P01116 1-188 isoform P01116-2): as the sequence (P01116 1-188 isoform P01116-2) above
IC50 (K-Ras G12D mutant) [nM],IC50 (wildtype K-Ras) [nM],IC50 [1] [nM],IC50 (wildtype Kras / hSOS1) [nM],Structure (SMILES)
< 500,> 500,–,–,"CN1CCC[C@H]1COc1nc(N2CCCNCC2)c2cc(Cl)c(-c3cccc4sc(N)nc34)c(F)c2n1 [Compound 101, 4-(6-chloro-4-(1,4-diazepan-1-yl)-8-fluoro-2-(((S)-1-methylpyrrolidin-2-yl)methoxy)quinazolin-7-yl)benzo[d]thiazol-2-amine]"
–,–,> 500,> 500,"Fc1ccc(-c2c(Cl)cc3c(N4CC5CCC(C4)N5)nc(OC[C@@]45CCCN4C[C@H](F)C5)nc3c2F)c2c1CCCC2 [Compound 689, 4-(3,8-diazabicyclo[3.2.1]-octan-3-yl)-6-chloro-8-fluoro-7-(4-fluoro-5,6,7,8-tetrahydronaphthalen-1-yl)-2-(((2R,7aS)-2-fluorotetra-hydro-1H-pyrrolizin-7a(5H)-yl)methoxy)quinazoline]"
–,–,< 500,> 500,"Nc1nc2c(-c3c(Cl)cc4c(N5CC6CCC(CC6)C5)nc(OC[C@@]56CCCN5C[C@H](F)C6)nc4c3F)ccc(F)c2s1 [Compound 690, 4-(4-(3-azabicyclo[3.2.2]-nonan-3-yl)-6-chloro-8-fluoro-2-(((2R,7aS)-2-fluorotetrahydro-1H-pyrrol-izin-7a(5H)-yl)methoxy)-quinazolin-7-yl)-7-fluoro-benzo[d]thiazol-2-amine]"
–,–,> 500,> 500,"N#Cc1ccc2ccccc2c1-c1ccc2c(N3CC4CCC(C3)N4)nc(OC[C@@]34CCCN3C[C@H](F)C4)nc2c1F [Compound 691, 1-(4-(3,8-diazabicyclo-[3.2.1]octan-3-yl)-8-fluoro-2-(((2R,7aS)-2-fluorotetra-hydro-1H-pyrrolizin-7a(5H)-yl)methoxy)quinazolin-7-yl)-2-naphthonitrile]"
–,–,< 500,> 500,"CN(C)CC1(COc2nc(N3CC4CCC(C3)N4)c3cc(Cl)c(-c4cccc5oc(N)nc45)c(F)c3n2)CC1 [Compound 692, 4-(4-(3,8-diazabicyclo-[3.2.1]-octan-3-yl)-6-chloro-2-((1-((dimethylamino)-methyl)cyclopropyl)meth-oxy)-8-fluoroquinazolin-7-yl)benzo[d]oxazol-2-amine]"
–,–,> 500,> 500,"O=C(c1cc(O)cc2ccccc12)N1CCc2nc(OCC34CCCN3CCC4)nc(N3CC4CCC(C3)N4)c2CC1 [Compound 694, (4-(3,8-diazabicyclo[3.2.1]-octan-3-yl)-2-((tetrahydro-1H-pyrrolizin-7a(5H)-yl)-methoxy)-5,6,8,9-tetrahydro-7H-pyrimido[4,5-d]azepin-7-yl)(3-hydroxynaphthalen-1-yl)methanone]"
–,–,> 500,> 500,"Nc1c(-c2c(Cl)cc3c(N4CC5CCC(C4)N5)nc(OCC45CCCN4CCC5)nc3c2F)cccc1C1CC1 [Compound 695, 2-(4-(3,8-diazabicyclo-[3.2.1]octan-3-yl)-6-chloro-8-fluoro-2-((tetrahydro-1H-pyrrolizin-7a(5H)-yl)meth-oxy)quinazolin-7-yl)-6-cyclopropylaniline]"
–,–,> 500,> 500,"CN1CCCC1CCNc1nc(N2CC3CCC(C2)N3)c2ccc(-c3ccc(F)c4sc(N)nc34)nc2n1 (stereo not shown) [Compound 697, 4-(4-(3,8-diazabicyclo-[3.2.1]octan-3-yl)-2-((2-(1-methylpyrrolidin-2-yl)-ethyl)amino)pyrido[2,3-d]-pyrimidin-7-yl)-7-fluoro-benzo[d]thiazol-2-amine]"
–,–,< 500,> 500,"CN1CCC[C@H]1COc1nc(N2CCCCC(C(N)=O)C2)c2cc(Cl)c(-c3cccc4sc(N)nc34)c(F)c2n1 (stereo partly drawn) [Compound 700, 1-(7-(2-aminobenzo[d]-thiazol-4-yl)-6-chloro-8-fluoro-2-(((S)-1-methyl-pyrrolidin-2-yl)methoxy)-quinazolin-4-yl)azepane-3-carboxamide]"
–,–,< 500,> 500,"CN(C)CC1(COc2nc(N3C[C@H]4CC[C@@H](C3)N4)c3cc(Cl)c(-c4cc(O)cc5ccccc45)c(F)c3n2)CC1 [Compound 701, 4-(4-((1R,5S)-3,8-diazabicyclo[3.2.1]octan-3-yl)-6-chloro-2-((1-((dimethylamino)methyl)cyclopropyl)methoxy)-8-fluoroquinazolin-7-yl)naphthalen-2-ol]"
–,–,> 500,> 500,"Cc1ccc2[nH]nc(N)c2c1-c1ccc2c(N3CC4CCC(C3)N4)nc(OC[C@@]34CCCN3C[C@H](F)C4)nc2c1F [Compound 703, 4-(4-(3,8-diazabicyclo-[3.2.1]octan-3-yl)-8-fluoro-2-(((2R,7aS)-2-fluorotetra-hydro-1H-pyrrolizin-7a(5H)-yl)methoxy)quinazolin-7-yl)-5-methyl-1H-indazol-3-amine]"
